EC50 and IC50 data for 22 molecules are collected here from patent publication US12325697B2 (Nimbus Clio, Inc., priority 2021, dated 2025).

Experiment [1] has as its system Jurkat (clone E6-1) cells, NFAT luciferase reporter. The experiment is described as follows: Jurkat Reporter Assay (NFAT Luciferase). In kind it is cell-based. Particulars: Homo sapiens, anti-CD3 stimulation, 6 hr, read-out: Jurkat NFAT EC50.
Experiment [2] concerns the target Recombinant human c-Cbl (aa 47-435) (Homo sapiens (Human), UniProt P22681). Description: c-Cbl Biochemical Assay (TR-FRET). An outline of the steps:
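Biotinylated c-Cbl (6 nM) preincubated 30 min RT with compound, then reacted 60-90 min with Src-Zap70 (2.5-10 nM) and 0.5 mM ATP, pH 7.0 HEPES buffer. Stopped with EDTA; 100 nM Bodipy-ubiquitinated UBE2D2 binding read by TR-FRET after 60 min; IC50 from 4-parameter fit.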
A general note: In TR-FRET formats the signal depends on donor and acceptor labels being close together.

Experiment [3] has as its target Recombinant human Cbl-b (aa 36-427) (Homo sapiens (Human), UniProt Q13191). Description: Cbl-b Biochemical Assay (TR-FRET). The settings on record: read-out: TR-FRET hCbl-b IC50. In outline: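 Two-step TR-FRET: 6 nM biotinylated Cbl-b preincubated 30-60 min with compound, then 60 min at RT with 1-2.5 nM Src-Zap70 and 0.5 mM ATP in HEPES pH 7.0 buffer, 1% DMSO. Stopped with 5 mM EDTA plus 100 nM UBE2D2-Ub-FL-BODIPY and 1 nM streptavidin-Tb, 60 min; 520 nm signal; IC50 from 4-parameter fit.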

Recombinant human c-Cbl (aa 47-435), sequence (P22681 47-435): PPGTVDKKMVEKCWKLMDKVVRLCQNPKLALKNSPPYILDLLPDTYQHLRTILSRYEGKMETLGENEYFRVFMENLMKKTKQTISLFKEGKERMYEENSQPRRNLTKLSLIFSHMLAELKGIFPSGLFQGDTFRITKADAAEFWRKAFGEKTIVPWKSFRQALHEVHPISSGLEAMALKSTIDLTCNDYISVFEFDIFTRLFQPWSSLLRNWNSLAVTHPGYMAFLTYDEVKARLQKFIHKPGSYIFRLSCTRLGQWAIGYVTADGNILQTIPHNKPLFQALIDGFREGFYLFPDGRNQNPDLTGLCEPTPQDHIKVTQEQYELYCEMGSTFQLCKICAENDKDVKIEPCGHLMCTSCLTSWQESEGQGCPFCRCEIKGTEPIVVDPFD
Recombinant human Cbl-b (aa 36-427), sequence (Q13191 36-427): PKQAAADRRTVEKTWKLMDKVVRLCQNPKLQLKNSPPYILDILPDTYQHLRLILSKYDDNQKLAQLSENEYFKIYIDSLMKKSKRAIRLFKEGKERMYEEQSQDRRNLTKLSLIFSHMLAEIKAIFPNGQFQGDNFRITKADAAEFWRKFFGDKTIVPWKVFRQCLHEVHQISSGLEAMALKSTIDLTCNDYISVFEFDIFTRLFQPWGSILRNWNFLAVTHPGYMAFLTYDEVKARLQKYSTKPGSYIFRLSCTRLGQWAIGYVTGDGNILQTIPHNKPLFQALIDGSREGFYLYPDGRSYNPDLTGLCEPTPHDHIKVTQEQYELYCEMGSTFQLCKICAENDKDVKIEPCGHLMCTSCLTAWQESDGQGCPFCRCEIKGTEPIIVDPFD

A word on the EC50: it is the concentration needed to bring the measured effect to its halfway point. `CCNc1cc(-c2c(-c3nncn3C)cnn2C)cc(N2Cc3c(cc(COC4CCN(C)CC4)cc3C(F)(F)F)C2=O)n1` [ADA-2, 2-[6-(Ethylamino)-4-[2-methyl-4-(4-methyl-1,2,4-triazol-3-yl)pyrazol-3-yl]pyridin-2-yl]-6-{[(1-methylpiperidin-4-yl)oxy]methyl}-4-(trifluoromethyl)-3H-isoindol-1-one]: in experiment [1], the EC50 was 1000 to 10000 nM.
What is called IC50 is the concentration that inhibits the measured activity by half. Regarding `Cn1cnnc1-c1cc(C#N)ccc1-c1cc(C2CC2)nc(N2Cc3ccc(CNC[C@@H]4CCOC4)cc3C2=O)c1` [ANY-2, 4-{2-Cyclopropyl-6-[1-oxo-6-({[(3S)-oxolan-3-ylmethyl]amino}methyl)-3H-isoindol-2-yl]pyridin-4-yl}-3-(4-methyl-1,2,4-triazol-3-yl)benzonitrile], the IC50 in experiment [2] and in experiment [3] was at most 200 nM in each case.
Take `Cn1cnnc1-c1cc(C#N)ccc1-c1cc(C2CC2)nc(N2Cc3ccc(CNC[C@H]4CCOC4)cc3C2=O)c1` [ANZ-2, 4-{2-Cyclopropyl-6-[1-oxo-6-({[(3R)-oxolan-3-ylmethyl]amino}methyl)-3H-isoindol-2-yl]pyridin-4-yl}-3-(4-methyl-1,2,4-triazol-3-yl)benzonitrile]: the half-inhibitory concentration (IC50) in experiment [2] and in experiment [3] was at most 200 nM throughout.
For `CN(Cc1ccc2c(c1)C(=O)N(c1cc(-c3ccc(C#N)cc3-c3nncn3C)cc(C3CC3)n1)C2)C1CCC1` [AOA-1], the 50% inhibitory concentration (IC50) in experiment [2] and in experiment [3] was at most 200 nM in each case.
Consider `C[C@H](NC1COC1)c1ccc2c(c1)C(=O)N(c1cc(-c3ccc(C#N)cc3-c3nncn3C)cc(C3CC3)n1)C2` [AOB-2, (S)-4-(2-Cyclopropyl-6-(6-(1-(oxetan-3-ylamino)ethyl)-1-oxoisoindolin-2-yl)pyridin-4-yl)-3-(4-methyl-4H-1,2,4-triazol-3-yl)benzonitrile], for which the IC50 in experiment [2] and in experiment [3] was at most 200 nM each time.
Turning to `C[C@@H](NC1COC1)c1ccc2c(c1)C(=O)N(c1cc(-c3ccc(C#N)cc3-c3nncn3C)cc(C3CC3)n1)C2` [AOC-2], the concentration for half-maximal inhibition (IC50) in experiment [2] and in experiment [3] was at most 200 nM each time.
`C[C@@H](c1ccc2c(c1)C(=O)N(c1cc(-c3ccc(C#N)cc3-c3nncn3C)cc(C3CC3)n1)C2)N1CC2(COC2)C1` [AOD-2, 4-(2-Cyclopropyl-6-{6-[(1S)-1-{2-oxa-6-azaspiro[3.3]heptan-6-yl}ethyl]-1-oxo-3H-isoindol-2-yl}pyridin-4-yl)-3-(4-methyl-1,2,4-triazol-3-yl)benzonitrile]: the half-maximal inhibitory concentration (IC50) in experiment [2] and in experiment [3] was at most 200 nM in each case.
For the molecule `C[C@H](c1ccc2c(c1)C(=O)N(c1cc(-c3ccc(C#N)cc3-c3nncn3C)cc(C3CC3)n1)C2)N1CC2(COC2)C1` [AOE-1, 4-(2-Cyclopropyl-6-{6-[(1R)-1-{2-oxa-6-azaspiro[3.3]heptan-6-yl}ethyl]-1-oxo-3H-isoindol-2-yl}pyridin-4-yl)-3-(4-methyl-1,2,4-triazol-3-yl)benzonitrile], the IC50 in experiment [2] and in experiment [3] was at most 200 nM in each case.
Take `Cn1cnnc1-c1cc(C#N)ccc1-c1cc(C2CC2)nc(N2Cc3ccc(C(C)(C)NC4CCC4)cc3C2=O)c1` [AOI-1, 4-(2-{6-[2-(Cyclobutylamino)propan-2-yl]-1-oxo-3H-isoindol-2-yl}-6-cyclopropylpyridin-4-yl)-3-(4-methyl-1,2,4-triazol-3-yl)benzonitrile]: the IC50 in experiment [2] and in experiment [3] was at most 200 nM throughout.
In the case of `C[C@@H](NCc1ccc2c(c1)C(=O)N(c1cc(-c3ccc(C#N)cc3-c3nncn3C)cc(C3CC3)n1)C2)C1CCC1` [AOJ-2, 4-{2-[6-({[(1R)-1-Cyclobutylethyl]amino}methyl)-1-oxo-3H-isoindol-2-yl]-6-cyclopropylpyridin-4-yl}-3-(4-methyl-1,2,4-triazol-3-yl)benzonitrile], the half-inhibitory concentration (IC50) in experiment [2] and in experiment [3] was at most 200 nM in each case.
As to `C[C@H](NCc1ccc2c(c1)C(=O)N(c1cc(-c3ccc(C#N)cc3-c3nncn3C)cc(C3CC3)n1)C2)C1CCC1` [AOK-2, 4-{2-[6-({[(1S)-1-Cyclobutylethyl]amino}methyl)-1-oxo-3H-isoindol-2-yl]-6-cyclopropylpyridin-4-yl}-3-(4-methyl-1,2,4-triazol-3-yl)benzonitrile], the half-maximal inhibitory concentration (IC50) in experiment [2] and in experiment [3] was at most 200 nM each time.
With `Cn1cnnc1-c1cc(C#N)ccc1-c1cc(C2CC2)nc(N2Cc3ccc(CN4CC5(COC5)C4)cc3C2=O)c1` [AOL-1, 4-[2-Cyclopropyl-6-(6-{2-oxa-6-azaspiro[3.3]heptan-6-ylmethyl}-1-oxo-3H-isoindol-2-yl)pyridin-4-yl]-3-(4-methyl-1,2,4-triazol-3-yl)benzonitrile], the 50% inhibitory concentration (IC50) in experiment [2] and in experiment [3] was at most 200 nM throughout.
Turning to `Cn1cnnc1-c1cc(C#N)ccc1-c1cc(C2CC2)nc(N2Cc3ccc(CNC(C)(C)C4CCC4)cc3C2=O)c1` [AOM-2, 4-[2-(6-{[(2-Cyclobutylpropan-2-yl)amino]methyl}-1-oxo-3H-isoindol-2-yl)-6-cyclopropylpyridin-4-yl]-3-(4-methyl-1,2,4-triazol-3-yl)benzonitrile], the IC50 in experiment [2] and in experiment [3] was at most 200 nM in each case.
On to `CN(C)C(=O)CN(Cc1ccc2c(c1)C(=O)N(c1cc(-c3ccc(C#N)cc3-c3nncn3C)cc(C3CC3)n1)C2)CC1COC1` [AON-2, 2-{[(2-{4-[4-Cyano-2-(4-methyl-1,2,4-triazol-3-yl)phenyl]-6-cyclopropylpyridin-2-yl}-3-oxo-1H-isoindol-5-yl)methyl](oxetan-3-ylmethyl)amino}-N,N-dimethylacetamide], for which the 50% inhibitory concentration (IC50) in experiment [2] and in experiment [3] was at most 200 nM each time.
As to `Cn1cnnc1-c1cc(C#N)ccc1-c1cc(C2CC2)nc(N2Cc3ccc(CN4CCOC5(COC5)C4)cc3C2=O)c1` [AOO-2, 4-[2-Cyclopropyl-6-(6-{2,5-dioxa-8-azaspiro[3.5]nonan-8-ylmethyl}-1-oxo-3H-isoindol-2-yl)pyridin-4-yl]-3-(4-methyl-1,2,4-triazol-3-yl)benzonitrile], the IC50 in experiment [2] and in experiment [3] was at most 200 nM each time.
Take `Cn1cnnc1-c1cc(C#N)ccc1-c1cc(C2CC2)nc(N2Cc3ccc(C(C)(C)NCC4CCC4)cc3C2=O)c1` [AOS-2, 4-[2-(6-{2-[(Cyclobutylmethyl)amino]propan-2-yl}-1-oxo-3H-isoindol-2-yl)-6-cyclopropylpyridin-4-yl]-3-(4-methyl-1,2,4-triazol-3-yl)benzonitrile]: the IC50 in experiment [2] and in experiment [3] was at most 200 nM each time.
With `Cn1cnnc1-c1cc(C#N)ccc1-c1cc(C2CC2)nc(N2Cc3c(F)cc(CN4CC[C@@H]5COC[C@H]54)cc3C2=O)c1` [AOU-1, 4-(2-Cyclopropyl-6-(4-fluoro-6-(((3aS,6aS)-hexahydro-1H-furo[3,4-b]pyrrol-1-yl)methyl)-1-oxoisoindolin-2-yl)pyridin-4-yl)-3-(4-methyl-4H-1,2,4-triazol-3-yl)benzonitrile], the 50% inhibitory concentration (IC50) in experiment [2] and in experiment [3] was at most 200 nM each time.
With `COC[C@H]1CCN1Cc1cc(F)c2c(c1)C(=O)N(c1cc(-c3ccc(C#N)cc3-c3nncn3C)cc(C3CC3)n1)C2` [AOW-2, 4-[2-Cyclopropyl-6-(4-fluoro-6-{[(2R)-2-(methoxymethyl)azetidin-1-yl]methyl}-1-oxo-3H-isoindol-2-yl)pyridin-4-yl]-3-(4-methyl-1,2,4-triazol-3-yl)benzonitrile], the half-maximal inhibitory concentration (IC50) in experiment [2] and in experiment [3] was at most 200 nM in each case.
As to `Cn1cnnc1-c1cc(C#N)ccc1-c1cc(C2CC2)nc(N2Cc3c(cc(CNCC4(O)CCC4)c(F)c3F)C2=O)c1` [AOX-1, 4-{2-Cyclopropyl-6-[4,5-difluoro-6-({[(1-hydroxycyclobutyl)methyl]amino}methyl)-1-oxo-3H-isoindol-2-yl]pyridin-4-yl}-3-(4-methyl-1,2,4-triazol-3-yl)benzonitrile], the IC50 in experiment [2] and in experiment [3] was at most 200 nM throughout.
As to `COC[C@@H]1CCCN1Cc1cc(F)c2c(c1)C(=O)N(c1cc(-c3ccc(C#N)cc3-c3nncn3C)cc(C3CC3)n1)C2` [AOY-2, (S)-4-(2-Cyclopropyl-6-(4-fluoro-6-((2-(methoxymethyl)pyrrolidin-1-yl)methyl)-1-oxoisoindolin-2-yl)pyridin-4-yl)-3-(4-methyl-4H-1,2,4-triazol-3-yl)benzonitrile], the concentration for half-maximal inhibition (IC50) in experiment [2] and in experiment [3] was at most 200 nM in each case.
As to `Cn1cnnc1-c1cc(C#N)ccc1-c1cc(C2CC2)nc(N2Cc3c(F)cc(CN4CCC[C@H]4CF)cc3C2=O)c1` [APA-2, 4-[2-Cyclopropyl-6-(4-fluoro-6-{[(2S)-2-(fluoromethyl)pyrrolidin-1-yl]methyl}-1-oxo-3H-isoindol-2-yl)pyridin-4-yl]-3-(4-methyl-1,2,4-triazol-3-yl)benzonitrile], the 50% inhibitory concentration (IC50) in experiment [2] and in experiment [3] was at most 200 nM in each case.
Consider `COC[C@H]1CCCN1Cc1cc(F)c2c(c1)C(=O)N(c1cc(-c3ccc(C#N)cc3-c3nncn3C)cc(C3CC3)n1)C2` [APB-2, 4-[2-Cyclopropyl-6-(4-fluoro-6-{[(2R)-2-(methoxymethyl)pyrrolidin-1-yl]methyl}-1-oxo-3H-isoindol-2-yl)pyridin-4-yl]-3-(4-methyl-1,2,4-triazol-3-yl)benzonitrile], for which the IC50 in experiment [2] and in experiment [3] was at most 200 nM throughout.
